29 compounds from patent US5436260A, “Angiotensin II receptor antagonists” (Warner-Lambert Company, priority 1994, dated 1995) can be followed below.

Where a name gives a salt, the structure may show the parent alone.

The target in the assay is T1, AT1 receptor (Rattus norvegicus, UniProt P25095).
T1 construct: rat liver membranes; from tissue; host or cells: rat liver membranes
T1 sequence (P25095 1-359): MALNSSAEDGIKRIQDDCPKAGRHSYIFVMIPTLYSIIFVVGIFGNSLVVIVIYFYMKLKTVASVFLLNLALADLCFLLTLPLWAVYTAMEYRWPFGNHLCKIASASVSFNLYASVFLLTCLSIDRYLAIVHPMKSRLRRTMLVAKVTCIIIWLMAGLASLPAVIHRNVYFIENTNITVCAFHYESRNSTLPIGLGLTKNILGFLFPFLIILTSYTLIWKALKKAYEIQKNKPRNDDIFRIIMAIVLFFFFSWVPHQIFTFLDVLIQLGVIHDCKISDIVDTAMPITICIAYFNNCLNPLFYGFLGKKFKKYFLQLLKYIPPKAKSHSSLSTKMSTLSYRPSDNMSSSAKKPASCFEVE
In words: [^3 H]angiotensin II binding to rat liver membranes (AT1 test). The settings on record: inhibition of [^3 H]angiotensin II binding. As for the experimental part: The compounds of Formula I or Ia are antagonists of angiotensin II. Dudley, D. T., et al, Molecular Pharmacology 1990;38:370-377 reported the existence of 2 subclasses of angiotensin II binding sites in rabbit adrenal gland and uterus and in the rat liver which differ in their tissue distribution and affinity for various peptide and nonpeptide ligands. Thus, the compounds of Formula I or Ia were tested for their ability to inhibit [^3 H]angiotensin II binding to rat liver membranes (AT1 test) according to the methods described by Dudley, D. T., et al, Molecular Pharmacology 1990;38:370-7. […] It is well established that compounds which antagonize the effect of angiotensin II at the AT1 receptor have value for treatment of hypertension and heart failure.
As usually defined, the IC50 is the concentration that gives 50% inhibition. High values mean lower potency, low ones higher potency. Take `CCCCCCN1C(=O)N(CCCC)C(=O)/C1=C/c1cnc(CCCC)n1Cc1ccc(C(=O)OC)cc1` [Example 35, Methyl Z-4-[[2-butyl-5-[(1-butyl-3-hexyl-2,5-dioxo-4-imidazolidinylidene)methyl]-1H-imidazol-1-yl]methyl]benzoate monohydrochloride]: the IC50 turned out to be 40.2 nM. In turn, `CCCCc1ncc(/C=C2/C(=O)N(CCCC)C(=O)N2CC2CCCCC2)n1Cc1ccc(C(=O)OC)cc1` [Example 43, Methyl Z-4-[[2-butyl-5-[[1-butyl-3-(cyclohexylmethyl)-2,5-dioxo-4-imidazolidinylidene]methyl]-1H-imidazol-1-yl]methyl]benzoate mono hydrochloride] had an IC50 of 3.33 nM. In turn, `CCCCCCN1C(=O)/C(=C/c2cnc(CCCC)n2Cc2ccc(C(=O)OC)cc2)N(Cc2csc(C)n2)C1=O` [Example 51, Methyl Z-4-[[2-butyl-5-[1-hexyl-3-[(2-methyl-4-thiazolyl)methyl-2,5-dioxo-4-imidazolidinylidene]methyl]-1H-imidazol-1-yl]methyl]benzoate dihydrochloride] displayed an IC50 of 5.33 nM. For `CCCCc1nc(Br)c(/C=C2\C(=O)NC(=O)N2CCCC)n1Cc1ccc(-c2ccccc2C(=O)OC)cc1` [Example 97b, Methyl E-4'-[[4-bromo-2-butyl-5-[(3-butyl-2,5-dioxo-4-imidazolidinylidene)methyl]-1H-imidazol-1-yl]methyl][1,1'-biphenyl]-2-carboxylate] the value was 500 nM; for `CCCCc1ncc(/C=C2/C(=O)NC(=O)N2CCCCO)n1Cc1ccc(C(=O)OC)cc1` [Example 17b, (Z)-4-[[2-Butyl-5-[[2,5-dioxo-3-(4-hydroxybutyl)-4-imidazolidinylidene]methyl]-1-H-imidazole-1-yl]methyl]benzoic acid, methyl ester], 49.5 nM; for `CCCCc1ncc(/C=C2/C(=O)N(CCCC(F)(F)F)C(=O)N2Cc2csc(C)n2)n1Cc1ccc(C(=O)OC)cc1` [Example 111, Methyl Z-4-[[2-Butyl-5-[[3-[(2-methyl-4-thiazoyl)methyl]-2,5-dioxo-1-(4,4,4-trifluorobutyl)-4-imidazolidinylidene]methyl]-1H-imidazol-1-yl]methyl]benzoate dihydrochloride], 70 nM. Regarding `CCCCc1ncc(/C=C2/C(=O)N(CC3CC3)C(=O)N2Cc2cccs2)n1Cc1ccc(C(=O)OC)cc1` [Example 89, Methyl Z-4-[[2-butyl-5-[[1-(cyclopropylmethyl)-2,5-dioxo-3-(2-thienylmethyl)-4-imidazolidinylidene]methyl]-1H-imidazol-1-yl]methyl]benzoiate monohydrochloride], the IC50 came to 2.59 nM.

The compound `CCCCc1ncc(/C=C2/C(=O)NC(=O)N2CCCC)n1Cc1ccc(C2(C(=O)OC)CCCCC2)cc1` [Example 88a] registered a 50% inhibitory concentration (IC50) of 276 nM.

`CCCCc1ncc(/C=C2\NC(=O)N(CCCC)C2=O)n1Cc1ccc(C2(C(=O)OC)CCCC2)cc1` [Example 83, Methyl Z-1-[4-[[2-butyl-5-[(1-butyl-2,5-dioxo-4-imidazolidinylidene)methyl]-1H-imidazol-1-yl]methyl]phenyl]cyclopentanecarboxylate] yielded an IC50 of over 1000 nM. The result for `CCCCc1ncc(/C=C2/C(=O)NC(=O)N2CCCC)n1Cc1ccc(C(=O)OC)cc1Cl` [Example 87a, Methyl Z-4-[[2-butyl-5-[(3-butyl-2,5-dioxo-4-imidazolidinylidene)methyl]-1H-imidazol-1-yl]methyl]-3-chlorobenzoate] reads 10 nM; that for `CCCCc1ncc(/C=C2/C(=O)NC(=O)N2Cc2ccccc2)n1Cc1ccc(C(=O)O)cc1` [Example 4b], 4.17 nM; that for `CCCCc1ncc(/C=C2\C(=O)NC(=O)N2c2ccccc2)n1Cc1ccc(C(=O)O)cc1` [Example 5, (E)-4-[[2-Butyl-5-[(2,5-dioxo-3-phenyl-4-imidazol-imidazolidinylidene)methyl]-1H-imidazole-1-yl]methyl]benzoic acid], 643 nM. For `CCCCc1ncc(/C=C2\C(=O)NC(=O)N2CCC(C)C)n1Cc1ccc(C(=O)O)cc1` [Example 2a] the value was 9.4 nM; for `CCCCc1ncc(C(O)C2C(=O)NC(=O)N2CCCC)n1Cc1ccc(C(=O)OC)cc1` (centres unmarked) [Example 29, Methyl 4-[[2-butyl-5-[(3-butyl-2,5-dioxo-4-imidazolidinyl)hydroxymethyl]-1H-imidazol-1-yl]methyl]benzoate], over 1000 nM; for `CCCCc1ncc(/C=C2/C(=O)N(CCCC)C(=O)N2Cc2csc(C)n2)n1Cc1ccc(C(=O)O)cc1` [Example 59, Z-4-[[2-butyl-5-[[1-butyl-3-[(2-methyl-4thiazolyl)methyl]-2,5-dioxo-4-imidazolidinylidene]methyl]-1H-imidazol-1-yl]methyl]benzoic acid], 1.21 nM. The result for `CCCCN1C(=O)N(C)C(=O)/C1=C\c1cnc(CCC)n1Cc1ccc(C(=O)OC)cc1` [Example 18] reads 21 nM. In the case of `CCCCc1ncc(/C=C2\C(=O)N(Cc3csc(C)n3)C(=O)N2CCCC)n1Cc1ccc(C(=O)OC)cc1` [Example 86, Methyl E-4-[[2-butyl-5-[[3-butyl-1-[(2-methyl-4-thiazolyl)methyl]-2,5-dioxo-4-imidazolidinylidene]methyl]-1H-imidazol-1-yl]methyl]benzoate dihydrochloride], the IC50 is 4.58 nM. Regarding `CCCCc1ncc(/C=C2\C(=O)NC(=O)N2CCCC)n1Cc1ccc(NS(=O)(=O)C(F)(F)F)cc1` [Example 71b, E-N-[4-[[2-butyl-5-[(3-butyl-2,5-dioxo-4-imidazolidinylidene)methyl]-1H-imidazol-1-yl]methyl]phenyl]-1,1,1-trifluoromethanesulfonamide], the IC50 is 4.18 nM. Consider `CCCCc1ncc(/C=C2/C(=O)N(CCCC)C(=O)N2Cc2cccc[n+]2[O-])n1Cc1ccc(C(=O)OC)cc1` [Example 57, Methyl Z-4-[[2-butyl-5-[[1-butyl-2,5-dioxo-3-[(2-pyridinyl-N-oxide)-methyl]-4-imidazolidinylidene]methyl]-1H-imidazol-1-yl]methyl]benzoate], for which the IC50 was found to be 260 nM. The result for `CCCCc1ncc(/C=C2/C(=O)N(CCCC)C(=O)N2CCCC(F)(F)F)n1Cc1ccc(C(=O)OC)cc1` [Example 112, Methyl Z-4-[[2-butyl-5-[[1-butyl-2,5-dioxo-3-(4,4,4-trifluorobutyl)-4-imidazolidinylidene]methyl]-1H-imidazol-1-yl]methyl]benzoate dihydrochloride] reads 6.44 nM; that for `CCCCc1ncc(/C=C2/C(=O)N(CCCC)C(=O)N2Cc2csc(Br)c2)n1Cc1ccc(C(=O)OC)cc1` [Example 81, Methyl Z-4-[[5-[[3-[(5-bromo-3-thienyl)methyl]-1-butyl-2,5-dioxo-4-imidazolidinylidene]methyl]-2-butyl-1H-imidazol-1-yl]methyl]benzoate monohydrochloride], 25.4 nM; that for `CCCCc1ncc(/C=C2/C(=O)NC(=O)N2Cc2cccs2)n1Cc1ccc(C(=O)OC)cc1` [Example 63], 5.08 nM. With `CCCCc1ncc(/C=C2/NC(=O)N(CCCC)C2=O)n1Cc1ccc(C(=O)OC)cc1` [Example 32b, Methyl E-4-[[2-butyl-5-[(1-butyl-2,5-dioxo-4-imidazolidinylidene)methyl]-1H-imidazol-1-yl]methyl]benzoate], the IC50 came out at 1170 nM.

`CCCCc1ncc(/C=C2/C(=O)N(Cc3cccs3)C(=O)N2Cc2cccs2)n1Cc1ccc(C(=O)O)cc1` [Example 105, Z-4-[[2-Butyl-5-[[2,5-dioxo-1,3-bis(2-thienylmethyl)-4-imidazolidinylidene]methyl]-1H-imidazol-1-yl]methyl]benzoic acid]: the IC50 was 1.47 nM. The result for `CCCCc1ncc(/C=C2/C(=O)N(CCCC)C(=O)N2Cc2ccno2)n1Cc1ccc(C(=O)OC)cc1` [Example 106, Methyl Z-4-[[2-butyl-5-[[1-butyl-3-(5-isoxazolyl-methyl)-2,5-dioxo-4-imidazolidinylidene]methyl]-1H-imidazol-1-yl]methyl]benzoate monohydrochloride] reads 10.1 nM; that for `CCCCc1ncc(/C=C2/C(=O)N(CO)C(=O)N2Cc2csc(C)n2)n1Cc1ccc(C(=O)OC)cc1` [Example 101, Methyl Z-4-[[2-butyl-5-[[1-(hydroxymethyl)-3-[(2-methyl-4-thiazolyl)methyl]-2,5-dioxo-4-imidazolidinylidene]methyl]-1H-imidazol-1-yl]methyl]benzoatedihydrochloride], 35.7 nM.

The compound `CCCCc1ncc(/C=C2/C(=O)N(CCCC)C(=O)N2Cc2cc(C)on2)n1Cc1ccc(C(=O)OC)cc1` [Example 108, Methyl Z-4-[[2-butyl-5-[[1-butyl-3-[(5-methyl-3-isoxazolyl)methyl]-2,5-dioxo-4-imidazolidinylidene]methyl]-1H-imidazol-1-yl]methyl]benzoate] had an IC50 of 8.47 nM.

Compound `CCCCc1ncc(/C=C2/C(=O)N(CCCC)C(=O)N2Cc2ccc([N+](=O)[O-])cc2)n1Cc1ccc(C(=O)OC)cc1` [Example 38, mono hydrochloride] showed an IC50 of 16.9 nM. For `CCCCCCN1C(=O)N/C(=C\c2cnc(CCCC)n2Cc2ccc(C(=O)OC)cc2)C1=O` [Example 47, Methyl ZX-4-[[2-butyl-5-[(1-hexyl-2,5-dioxo-4-imidazolidinylidene)methyl]-1H-imidazol-1-yl]m,ethyl]benzoate] the value was over 1000 nM.
